# Where “and” joins values, the source holds several entries; their conditions need not be identical. Identical values can stand only once.
# Molecular target: T1, TbERK8 (Trypanosoma brucei brucei, UniProt Q38B88)
# T1 sequence (Q38B88 1-442): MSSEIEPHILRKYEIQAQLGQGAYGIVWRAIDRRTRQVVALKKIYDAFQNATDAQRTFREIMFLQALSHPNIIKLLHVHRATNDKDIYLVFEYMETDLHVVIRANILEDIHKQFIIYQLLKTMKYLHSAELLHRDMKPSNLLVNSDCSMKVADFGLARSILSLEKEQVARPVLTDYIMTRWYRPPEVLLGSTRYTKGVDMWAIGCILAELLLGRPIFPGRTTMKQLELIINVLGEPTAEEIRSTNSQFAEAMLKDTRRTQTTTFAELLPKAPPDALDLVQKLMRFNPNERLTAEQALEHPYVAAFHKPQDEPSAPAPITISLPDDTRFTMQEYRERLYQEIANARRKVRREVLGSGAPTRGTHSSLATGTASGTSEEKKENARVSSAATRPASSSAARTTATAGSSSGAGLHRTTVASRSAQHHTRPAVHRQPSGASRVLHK
# Assay: Luciferase-based kinase inhibition assay (ATP luminescence), GST-tagged TbERK8 with MBP substrate
# Type: biochemical
# Design: raw luminescence, TbERK8: unit of the concentration uncertain
# Settings: for raw luminescence, TbERK8: replicate wells; for raw luminescence, TbERK8 / Luminescence Raw (Kinase-Glo): listed as Sil; for Luminescence Raw (Kinase-Glo): TbERK8
# Protocol: Escherichia coli strain Rosetta 2 (DE3) (Cat# 71397, MilliporeSigma, Burlington, MA) was transformed with the plasmid pGEX2T expressing the full-length hERK8 coding region or pGSTAg expressing the full-length TbERK8 coding region. One liter of Terrific Broth media containing 100 μg/ml Ampicillin and 30 μg/ml chloramphenicol in 2 L baffled flasks was inoculated with 25 mL from an overnight culture of Rosetta 2 strains harboring either the pGEX2T-hERK8 or pGSTAg-TbERK8 plasmid. Two baffled flasks were inoculated with each overnight strain and incubated and shaken at 175 RPM in a New Brunswick Innova 44R Incubator Shaker (Fischer Scientific, Pittsburgh, PA) at 37 °C until the cultures reached an O.D.600 of 0.94. Once the cultures in the flask reached the target O.D.600, the flasks were cooled to 4 °C in an ice water bath. The cooled cultures were induced by adding isopropyl β-D-1-thiogalactopyranoside (IPTG) to a final concentration of 0.1 mM and shaken at 16 °C for 16 hours at 175 RPM in a New Brunswick Innova 44R Incubator Shaker (Fischer Scientific, Pittsburgh, PA). On the next day, the cultures were pelleted by centrifugation at 9000 xg in a JLA 10.500 rotor (Beckman Coulter; Brea, CA), and the media was decanted. The pellet was flash-frozen in liquid nitrogen and then thawed on ice. The thawed pellet was resuspended in lysis buffer (25 mM Tris, 75 mM NaCl, 0.5% TritonX-100 and 0.5% Nonidet P-40, 1 mM phenylmethanesulfonyl fluoride, 1 mM benzamidine⋅HCl) and lysed using a microfluidizer M-110P from Microfluidics (Westwood, MA). The crude lysates were clarified by centrifugation at 140,000 xg in a 45Ti rotor (Beckman Coulter, Brea, CA) for 30 min at 4°C. The clarified lysate was loaded by gravity to a 3 mL glutathione agarose resin column (Cat# G-250–10, GOLDBIO, St. Louis, MO) formed in a 1.5 × 20 cm glass chromatography column (Cat# 7371522, Bio-Rad, Hercules, CA). The column was washed with 30 mL of PBS (pH 7.4) containing 1 mM DTT. Elution buffer (50 mM Tris buffer pH 8.0 containing 10 mM reduced glutathione and 1 mM DTT was added to the washed column), and 1 mL fractions were collected by gravity and examined by SDS-PAGE stained by Coomassie dye. Peak fractions pooled from the elution were dialyzed (4x 1:500 dilutions) in kinase buffer (30 mM Tris, pH 7.4, 10 mM MgCl2, 1 mM DTT, 5% glycerol).
# We performed kinase assays in buffer K (30 mM Tris pH 7.4, 10 mM MgCl2, 1 mM DTT, 5% glycerol, 50 μM ATP, and 0.1 mg/mL BSA) at 30°C for 30 min in 30 μL reactions. GST-tagged HsERK8 and TbERK8 were tested using myelin basic protein (MBP) (Cat# 13–110, Millipore, Darmstadt, Germany) as the substrate at increasing concentrations to determine the optimal activity for the assay. ATP consumption was determined by adding equal volumes of the kinase assay reagent (Promega, Cat# V5601, Madison, WI) following the manufacturer’s protocol. Luminescence was measured using the microplate reader (SpectraMax L, Molecular Devices, Sunnyvale, CA).
# These compounds were screened for kinase inhibition utilizing a luciferase-based assay. Briefly, the kinases were tested using MBP as the substrate at a 14-fold molar excess in 384-well flat-bottom white plates (BRANDTECH Scientific, Cat# 781681, Essex, CT). These compounds were tested at concentrations ranging from […] to 150 nM. The kinases plus MBP substrate reactions were incubated with each inhibitor for 30 minutes at 30°C. Equal volumes of kinase assay mix Promega (Cat# V5601, Madison, WI) were added to the kinase/inhibitor reaction after 30 minutes, following the manufacturer’s protocol. ATP luminescence was measured using a microplate reader (SpectraMax L, Molecular Devices, Sunnyvale, CA). IC50 values were calculated from assays done in triplicate by fitting the data using Prism 8.1.1 (GraphPad).
smiles,measurement,setting,value
CCCc1nn(C)c2c(=O)[nH]c(-c3cc(S(=O)(=O)N4CCN(C)CC4)ccc3OCC)nc12 [Sildenafil],IC50,,9 mM
same,"raw luminescence, TbERK8","0.00015 (unit uncertain) compound, sheet ADP_ATP_glo081724 (3)",192.26 RLU and 196.784 RLU and 144.761 RLU
same,"raw luminescence, TbERK8","0.00015 (unit uncertain) compound, sheet Kinase_glo 08142024 (2)",642.503 RLU and 676.319 RLU and 570.644 RLU
same,"raw luminescence, TbERK8","0.00015 (unit uncertain) compound, sheet Kinase_glo_080924_IFPS (2)",1471.05 RLU and 1414.9 RLU and 1313.84 RLU
same,"raw luminescence, TbERK8","0.00061 (unit uncertain) compound, sheet ADP_ATP_glo081724 (3)",122.142 RLU and 174.165 RLU and 104.047 RLU
same,"raw luminescence, TbERK8","0.00061 (unit uncertain) compound, sheet Kinase_glo 08142024 (2)",718.589 RLU and 748.177 RLU and 712.248 RLU
same,"raw luminescence, TbERK8","0.00061 (unit uncertain) compound, sheet Kinase_glo_080924_IFPS (2)",788.303 RLU and 923.056 RLU and 783.811 RLU
same,"raw luminescence, TbERK8","0.00244 (unit uncertain) compound, sheet ADP_ATP_glo081724 (3)",246.545 RLU and 205.831 RLU and 226.188 RLU
same,"raw luminescence, TbERK8","0.00244 (unit uncertain) compound, sheet Kinase_glo 08142024 (2)",701.681 RLU and 748.177 RLU and 629.822 RLU
same,"raw luminescence, TbERK8","0.00244 (unit uncertain) compound, sheet Kinase_glo_080924_IFPS (2)",458.159 RLU and 390.783 RLU and 375.062 RLU
same,"raw luminescence, TbERK8","0.00977 (unit uncertain) compound, sheet ADP_ATP_glo081724 (3)",235.236 RLU and 187.736 RLU and 135.713 RLU
same,"raw luminescence, TbERK8","0.00977 (unit uncertain) compound, sheet Kinase_glo 08142024 (2)",820.036 RLU and 841.171 RLU and 775.653 RLU
same,"raw luminescence, TbERK8","0.00977 (unit uncertain) compound, sheet Kinase_glo_080924_IFPS (2)",660.288 RLU and 590.666 RLU and 547.994 RLU
same,"raw luminescence, TbERK8","0.03906 (unit uncertain) compound, sheet ADP_ATP_glo081724 (3)",210.355 RLU and 205.831 RLU and 187.736 RLU
same,"raw luminescence, TbERK8","0.03906 (unit uncertain) compound, sheet Kinase_glo 08142024 (2)",526.26 RLU and 661.524 RLU and 672.092 RLU
same,"raw luminescence, TbERK8","0.03906 (unit uncertain) compound, sheet Kinase_glo_080924_IFPS (2)",981.449 RLU and 954.498 RLU and 819.745 RLU
same,"raw luminescence, TbERK8","0.15625 (unit uncertain) compound, sheet ADP_ATP_glo081724 (3)",341.544 RLU and 352.854 RLU and 287.259 RLU
same,"raw luminescence, TbERK8","0.15625 (unit uncertain) compound, sheet Kinase_glo 08142024 (2)",849.625 RLU and 830.604 RLU and 743.951 RLU
same,"raw luminescence, TbERK8","0.15625 (unit uncertain) compound, sheet Kinase_glo_080924_IFPS (2)",1302.61 RLU and 956.744 RLU and 1116.2 RLU
same,"raw luminescence, TbERK8","0.62500 (unit uncertain) compound, sheet ADP_ATP_glo081724 (3)",653.684 RLU and 678.565 RLU and 508.924 RLU
same,"raw luminescence, TbERK8","0.62500 (unit uncertain) compound, sheet Kinase_glo 08142024 (2)",1502.69 RLU and 1635.85 RLU and 1447.74 RLU
same,"raw luminescence, TbERK8","0.62500 (unit uncertain) compound, sheet Kinase_glo_080924_IFPS (2)",10771.2 RLU and 11665.1 RLU and 9012.71 RLU
same,"raw luminescence, TbERK8","2.50000 (unit uncertain) compound, sheet ADP_ATP_glo081724 (3)",9775.86 RLU and 9642.41 RLU and 4501.15 RLU
same,"raw luminescence, TbERK8","2.50000 (unit uncertain) compound, sheet Kinase_glo 08142024 (2)",30745 RLU and 32114.6 RLU and 32366.1 RLU
same,"raw luminescence, TbERK8","2.50000 (unit uncertain) compound, sheet Kinase_glo_080924_IFPS (2)",19880.5 RLU and 19849.1 RLU and 15795.3 RLU
same,"raw luminescence, TbERK8","10.00000 (unit uncertain) compound, sheet ADP_ATP_glo081724 (3)",17380.3 RLU and 17721.9 RLU and 17968.4 RLU
same,"raw luminescence, TbERK8","10.00000 (unit uncertain) compound, sheet Kinase_glo 08142024 (2)",40177.6 RLU (2×) and 40048.6 RLU
same,"raw luminescence, TbERK8","10.00000 (unit uncertain) compound, sheet Kinase_glo_080924_IFPS (2), signal = ATP left",19548.1 RLU and 21185.4 RLU and 21443.6 RLU
same,Luminescence Raw (Kinase-Glo),"inhibitor 0.00976562 mM, sheet Sil_Pred3, read 3",36049.4 and 37274.6 and 36862.3
same,Luminescence Raw (Kinase-Glo),"inhibitor 0.0195312 mM, sheet Sil_Pred3, read 3",31279.7 and 32797.7 and 32247.2
same,Luminescence Raw (Kinase-Glo),"inhibitor 0.0390625 mM, sheet Sil_Pred3, read 3",27320.5 and 29281.3 and 28655.8
same,Luminescence Raw (Kinase-Glo),"inhibitor 0.078125 mM, sheet Sil_Pred3, read 3",38799.7 and 40144.4 and 45260.9
same,Luminescence Raw (Kinase-Glo),"inhibitor 0.15625 mM, sheet Sil_Pred3, read 3",29028.3 and 32258.9 and 32301.1
same,Luminescence Raw (Kinase-Glo),"inhibitor 0.3125 mM, sheet Sil_Pred3, read 3",27939 and 30286.4 and 29686.6
same,Luminescence Raw (Kinase-Glo),"inhibitor 0.625 mM, sheet Sil_Pred3, read 3",36091.6 and 38406.1 and 37640.1
same,Luminescence Raw (Kinase-Glo),"inhibitor 0.00976562, sheet Sil_Pred1, read 1",40167.3 and 42010.2 and 38672.9
same,Luminescence Raw (Kinase-Glo),"inhibitor 0.00976562, sheet Sil_Pred2, read 2",37219 and 38747.1 and 37019
same,Luminescence Raw (Kinase-Glo),"inhibitor 0.0195312, sheet Sil_Pred1, read 1",34760.2 and 36412.8 and 34705.2
same,Luminescence Raw (Kinase-Glo),"inhibitor 0.0195312, sheet Sil_Pred2, read 2",32386.1 and 33904.8 and 32825.7
same,Luminescence Raw (Kinase-Glo),"inhibitor 0.0390625, sheet Sil_Pred1, read 1",30029.2 and 32598.7 and 32204.5
same,Luminescence Raw (Kinase-Glo),"inhibitor 0.0390625, sheet Sil_Pred2, read 2",28304.4 and 29974.3 and 30192.9
same,Luminescence Raw (Kinase-Glo),"inhibitor 0.078125, sheet Sil_Pred1, read 1",43786.6 and 44925.8 and 48645.9
same,Luminescence Raw (Kinase-Glo),"inhibitor 0.078125, sheet Sil_Pred2, read 2",39158.7 and 41749.6 and 45619.7
same,Luminescence Raw (Kinase-Glo),"inhibitor 0.15625, sheet Sil_Pred1, read 1",32447.4 and 35952.1 and 35828.3
same,Luminescence Raw (Kinase-Glo),"inhibitor 0.15625, sheet Sil_Pred2, read 2",29879 and 33446.7 and 32672.2
same,Luminescence Raw (Kinase-Glo),"inhibitor 0.3125, sheet Sil_Pred1, read 1",31858.4 and 33536.2 and 32552.9
same,Luminescence Raw (Kinase-Glo),"inhibitor 0.3125, sheet Sil_Pred2, read 2",29706.8 and 31355.8 and 30890.7
same,Luminescence Raw (Kinase-Glo),"inhibitor 0.625, sheet Sil_Pred1, read 1",41361.5 and 43495.5 and 43241.1
same,Luminescence Raw (Kinase-Glo),"inhibitor 0.625, sheet Sil_Pred2, read 2",37112 and 39789 and 39512.2

# — PMC12445744, “Molecular docking to homology models of human and Trypanosoma brucei ERK8 that identified ortholog-specific inhibitors” (PLOS Neglected Tropical Diseases, 2025)
